Source: EPA's ToxValDB 9.5 (doi:10.2903/j.efsa.2010.1707)
In brackets after ≈: the same amount, converted by molar mass.

Tests used:
Typhlodromus pyri = assay: LR50; higher = less toxic; conditions: not reported; mortality
Aphidius rhopalosiphi = assay: LR50; higher = less toxic; conditions: not reported; mortality
Folsomia candida = conditions: chronic/long-term; duration: 28 days
Oryctolagus sp. = conditions: developmental; development
Pimephales promelas = conditions: chronic/long-term; duration: 34 days; other
Cyprinodon variegatus = conditions: acute; duration: 96 hours; mortality
Rattus norvegicus = conditions: oral
Daphnia magna = conditions: chronic/long-term; duration: 21 days; growth
Bibionidae = conditions: chronic/long-term; duration: 28 days
Apis mellifera = conditions: acute; duration: 48 hours; oral; unspecified; mortality
Canidae = conditions: chronic; duration: 1 years; oral; Dog Other; clinical chemistry
Oncorhynchus mykiss = conditions: acute; duration: 96 hours; mortality

`CCCN(CCC)c1c([N+](=O)[O-])cc(S(N)(=O)=O)cc1[N+](=O)[O-]` [Oryzalin] gave an LR50 (Typhlodromus pyri) of under 3850 g/ha, an LR50 (Aphidius rhopalosiphi) of over 3850 g/ha and an NOEC (Folsomia candida) of 34.3 mg/kg. The NOAEL (Oryctolagus sp.) was 25 mg/kg-day, the NOEC (Pimephales promelas) was 0.22 mg/L and the LC50 (Cyprinodon variegatus) was over 3.04 µg/mL. It also gave an LC50 (Tagia sp.; acute, duration: 14 days, mortality) of over 103 mg/kg, an NOEC (Tagia sp.; chronic/long-term, duration: 56 days) of 34.3 mg/kg and an LD50 (Rattus norvegicus; acute, mortality) of over 5000 mg/kg-day. The NOAEL (Rattus norvegicus; subchronic, duration: 90 days, hematological) was 5 mg/kg-day, the NOEC (Daphnia magna) was 0.36 mg/L and the NOEL (Anas platyrhynchos; reproductive) was 41 mg/kg-day. For the same molecule, the LD50 (Anas platyrhynchos; short-term, oral, feed, mortality) was over 1350 mg/kg-day, the NOEC (Bibionidae) was 1 mg/L and the LD50 (Apis mellifera) was 32 µg/piece. For the same molecule, the NOAEL (Canidae) was 5 mg/kg-day, the LC50 (Oncorhynchus mykiss) was 2.86 µg/mL (≈ 8.26 µM) and the LD50 (Colinus virginianus; acute, oral, diet, mortality) was over 691 mg/kg-day. The NOEL (Colinus virginianus; reproduction developmental) was 28 mg/kg-day.
